# According to patent US9682092B2, “Boron-containing small molecules as anti-inflammatory agents” (ANACOR PHARMACEUTICALS, INC., priority 2006, dated 2017):
# Tested on: not given
# Assay: not given
# Details: not given
row,Compound,melting point [°C]
1,N#Cc1ccc(Oc2ccc(B(O)O)cc2)cc1,194 to 198
2,"O=C(O)COc1ccc2c(c1)COB2O [C42, 2-(1-hydroxy-1,3-dihydrobenzo[c][1,2]oxaborol-5-yloxy)acetic acid]",163 to 166
3,"OB1OCc2ccc(Oc3ccccc3)cc21 [C21, 6-Phenoxy-1,3-dihydro-1-hydroxy-2,1-benzoxaborole]",95 to 99
4,"CN(C)c1ccc2c(c1)B(O)OC2 [C51, 6-(dimethylamino)benzo[c][1,2]oxaborol-1(3H)-ol]",120 to 123
5,"COc1ccc(S(=O)(=O)c2ccc3c(c2)B(O)OC3)cc1 [C33, 6-(4-Methoxyphenylsulfonyl)-1,3-dihydro-1-hydroxy-2,1-benzoxaborole]",180 to 192
6,"OB1OCc2ccc(Sc3ccc(F)cc3)cc21 [C44, 6-(4-fluorophenylthio)benzo[c][1,2]oxaborol-1(3H)-ol]",135 to 138
7,"OB1OCc2ccc(Sc3cccs3)cc21 [C43, 6-(thiophen-2-ylthio)benzo[c][1,2]oxaborol-1(3H)-ol]",99 to 104

# Results, then the compound that gave them:
row,melting point [°C],Compound
1,139 to 144,"Cc1ccc(Sc2ccc3c(c2)B(O)OC3)cc1 [C95, 6-(p-tolylthio)benzo[c][1,2]oxaborol-1(3H)-ol]"
2,135 to 141,"N#CCCSc1cn(-c2ccc3c(c2)B(O)OC3)c2ccccc12 [C67, 3-(1-(1-hydroxy-1,3-dihydrobenzo[c][1,2]oxaborol-6-yl)-1H-indol-3-ylthio)propanenitrile]"
3,120 to 124,"COc1ccc2c(ccn2-c2ccc3c(c2)B(O)OC3)c1 [C68, 6-(5-methoxy-1H-indol-1-yl)benzo[c][1,2]oxaborol-1(3H)-ol]"
4,> 225,"N#CCCSc1cn(-c2ccc3c(c2)B(O)OC3)c2ccc(Cl)cc12 [C76, 3-(5-chloro-1-(1-hydroxy-1,3-dihydrobenzo[c][1,2]oxaborol-6-yl)-1H-indol-3-ylthio)propanenitrile]"
5,147 to 150,"N#Cc1cccc(COc2ccc3c(c2)COB3O)c1 [C96, 3-((1-hydroxy-1,3-dihydrobenzo[c][1,2]oxaborol-5-yloxy)methyl)benzonitrile]"
6,148 to 153,"N#Cc1ccc(Oc2cccc3c2B(O)OC3)cc1 [C74, 4-(1-hydroxy-1,3-dihydrobenzo[c][1,2]oxaborol-7-yloxy)benzonitrile]"
7,142 to 152,"O=S(=O)(c1ccccc1)N(c1ccc2c(c1)COB2O)S(=O)(=O)c1ccccc1 [C91, N-(1-hydroxy-1,3-dihydrobenzo[c][1,2]oxaborol-5-yl)-N-(phenylsulfonyl)benzenesulfonamide]"
8,107 to 111,"Cc1cccc2c1B(O)OC2 [C65, 7-methylbenzo[c][1,2]oxaborol-1(3H)-ol]"
9,149 to 154,"COc1ccc2c(c1)c(SCCC#N)cn2-c1ccc2c(c1)B(O)OC2 [C73, 3-(1-(1-hydroxy-1,3-dihydrobenzo[c][1,2]oxaborol-6-yl)-5-methoxy-1H-indol-3-ylthio)propanenitrile]"

# Tested on: PMA-induced ear swelling
# Assay: Topical, Phorbol Ester Mouse Ear Assay
# Type: in vivo, CD-1 (Crl.) derived male mice
# Details: 0.2 mg/ear×2 topical, 30 min before and 15 min after PMA; ear swelling measured 6 hours after PMA
# Description: 5-(4-Cyanophenoxy)-1-hydroxy-2,1-dihydrobenzoxaborole and betamethasone were provided by Anacor Pharmaceuticals, Inc. Betamethasone is used to treat the itching, redness, dryness, crusting, scaling, inflammation, and discomfort of various skin conditions.
# Test substances were each applied topically to the right ear of the test animal 30 minutes before and 15 minutes after Phorbol 12-Myristate 13-Acetate (PMA) was applied. The dosing volume was 20 μl/ear for solvent vehicle or 20 mg/ear for cream formulations.
# Male CD-1 (Crl.) derived mice weighing 24±2 g were provided by BioLasco Taiwan (under Charles River Laboratories Technology Licensee). Space allocation for 10 animals was 29×18×13 cm. Mice were housed in APEC® cages. All animals were maintained in a controlled temperature (22° C.-23° C.) and humidity (70%-80%) environment with 12 hours light dark cycles for at least one week in MDS Pharma Services—Taiwan Laboratory prior to use. Free access to standard lab chow for mice (Lab Diet, Rodent Diet, PMI Nutrition International, USA) and tap water was granted. All aspects of this work including housing, experimentation and disposal of animals were performed in general accordance with the Guide for the Care and Use of Laboratory Animals (National Academy Press, Washington, D.C., 1996).
# Groups of 5 CD-1 (Crl.) derived male mice weighing 24±2 g were used. PMA ([…] in 20 μl of Acetone) was applied topically to the anterior and posterior surfaces of the right ear to each animal. Vehicle (Ethanol:Acetone/1:1, 20 μL/ear or cream, 20 mg/ear) and test substances including 5-(4-cyanophenoxy)-1-hydroxy-2,1-dihydrobenzoxaborole and betamethasone were each applied 30 minutes before and 15 minutes after PMA application. […] Ear swelling was then measured by a Dyer model micrometer gauge at 6 hours after PMA application as an index of inflammation. Percent inhibition was calculated according to the formula: ([Ic−It]/Ic)×100%, where Ic and It refer to increase of ear thickness (mm) in control and treated mice, respectively. […]
row,Compound,Percent inhibition of ear swelling induced by topical phorbol ester [%]
1,"N#Cc1ccc(Oc2ccc3c(c2)COB3O)cc1 [C17, 5-(4-Cyanophenoxy)-1,3-dihydro-1-hydroxy-2,1-benzoxaborole]",22

# Same assay, conditions: 1 mg/ear×2, versus vehicle or cream placebo control
row,Compound,inhibition of the PMA-induced ear swelling (in words)
1,"N#Cc1ccc(Oc2ccc3c(c2)COB3O)cc1 [C17, 5-(4-Cyanophenoxy)-1,3-dihydro-1-hydroxy-2,1-benzoxaborole]",significant inhibition

# Same assay, conditions: 3 mg/ear topical, positive control; 6 hours after PMA
row,Compound,decrease in the ear swelling relative to the vehicle (Ethanol:Acetone/1:1)-treated group [%]
1,"C[C@@H]1C[C@H]2[C@@H]3CCC4=CC(=O)C=C[C@]4(C)[C@@]3(F)[C@@H](O)C[C@]2(C)[C@@]1(O)C(=O)CO [dexamethasone, Dexamethasone, reference compound]",72
